According to US11040981B2, “Pyrrolotriazine compounds and methods of inhibiting TAM kinases” (Syros Pharmaceuticals, Inc., priority 2017, dated 2021):

Test system: colon carcinoma CT-26 cells
Assay: CT-26 syngeneic tumor growth inhibition, alone or with anti-PD1 antibody
Format: in vivo, Balb/c female mice
Details: Compound 124 100 mg/kg oral twice daily combined with anti-PD1 antibody (clone RMP1-14) 10 mg/kg IP biweekly; compared with either agent as monotherapy; FIG. 3
Method: BLAB/c syngeneic mice challenged with colon carcinoma CT-26 cells were used to test the tumor growth inhibitory activity of Compound 124 and an anti-PD1 antibody alone or in combination. CT-26 tumor cells were maintained in vitro as a monolayer culture in RPMI-1640 medium supplemented with 10% heat inactivated fetal bovine serum, 100 U/ml penicillin and 100 μg/ml streptomycin at 37° C. in an atmosphere of 5% CO2 in air. The tumor cells were routinely subcultured twice weekly by trypsin-EDTA treatment. The cells growing in an exponential growth phase were harvested and counted for tumor inoculation. […]
Mice (8 for each regimen) were dosed with one of the following regimens: (1) twice daily oral dosing with 100 mg/kg of Compound 124; (2) biweekly IP injections with 10 mg/kg of anti-PD1 antibody (clone RMP1-14); (3) a combination of twice daily Compound 124 (100 mg/kg) and biweekly anti-PD1 antibody (10 mg/kg) or (4) an orally dosed vehicle control. Subcutaneous tumor volumes were measured three times per week starting at three days post-first dosing using caliper measurements in 2 dimensions (looking down at the tumor, using the calipers to make 2 diameter measurements at right angles to each other). The tumor volume was then calculated using the following standard formula: Tumor Volume=0.5*A*B^2, wherein A=longest diameter of the tumor; and B=shortest diameter of the tumor.

COC[C@H](C)Nc1ncc2c(-c3ccc(CN4CCN(C)CC4)cc3)cc([C@H]3CC[C@H](O)CC3)n2n1 (single isomer, unassigned) [Compound 124]
tumor growth (subcutaneous tumor volume): slower tumor growth
